From patent publication US4163785A, “Benzothiazepine compounds and compositions” (Hexachimie, priority 1978, dated 1979)

Legend:
[1] = tested on: passive cutaneous anaphylaxis reaction; test: Passive cutaneous anaphylaxis reaction; format: in vivo, rat; settings: for % inhibition: reduction of coloured surface; for ED50: Rattus norvegicus
Method: The method used is that described by MOTA I in "Immunology" 1964, 7, Page 681. This method consists of sensitizing rats by 4 intradermal injections of 0.1 ml rat antiserum. The antiserum is obtained from animals treated with a mixture of ovalbumin and bordetella pertussis. 72 hours after sensitization, the product to be studied and 1 ml per rat (IV) of a 0.25% solution of Evans blue+5 mg/ml ovalbumin in an isotonic aqueous solution of […] sodium chloride are administered to the animals intravenously or intraperitoneally. Thirty minutes after this last injection, the animals are killed and one measures the surface area of each bruise corresponding to the point of injection of the antiserum. The results are expressed as a percentage reduction of the coloured surface. The results are given in Table III hereafter in which the results obtained with disodium cromoglycate (used intravenously) are also shown by way of comparison.

histamine [2] = test: Histamine bronchoconstrictor aerosol (antihistamine activity); format: in vivo, guinea pig; settings: for % protection: animals without apneic crisis within 5 minutes
Method: Batches of 6 guinea pigs weighing from 200 to 250 g are exposed to an aerosol of 0.2% histamine in an aqueous solution, in a small chamber for 5 minutes. Two aerosols are used at an interval of 4 hours. The product tested is administered intraperitoneally 30 minutes before the use of the second aerosol.

histamine [3] = test: Action with regard to a LD100 of histamine (protection from mortality); format: in vivo, guinea pig; settings: for % protection: mortality caused by histamine, 1 hour
Method: Male tricolour guinea pigs weighing 400 to 500 g receive the product studied intraperitoneally. 30 minutes later, 800 γ/kg histamine, or the LD 100 in physiological solution are injected intraveinously.
The animals are kept under observation for 1 hour.

O=C(O)c1cc(=O)c2c(OCC(O)COc3cccc4oc(C(=O)O)cc(=O)c34)cccc2o1 [Disodium cromoglycate, disodium cromoglycate]
Mean Surface area ([1]; IV, 0.15 mg/kg, control 31.77 ± 3.16): 27.86 ± 3.82 mm^2
% inhibition ([1]; IV, 0.15 mg/kg, T ns): 12%
Mean Surface area ([1]; IV, 0.31 mg/kg, control 31.77 ± 3.16): 30.5 ± 2.59 mm^2
% inhibition ([1]; IV, 0.31 mg/kg, T ns): 4%
Mean Surface area ([1]; IV, 0.625 mg/kg, control 72.46 ± 4.37): 35.42 ± 5.02 mm^2
% inhibition ([1]; IV, 0.625 mg/kg, T ***): 51%
Mean Surface area ([1]; IV, 1.25 mg/kg, control 31.77 ± 3.16): 2.30 ± 1.07 mm^2
% inhibition ([1]; IV, 1.25 mg/kg, T ***): 93%
Mean Surface area ([1]; IV, 2.5 mg/kg, control 31.77 ± 3.16): 0.23 ± 0.23 mm^2
% inhibition ([1]; IV, 2.5 mg/kg, T ***): 99%
ED50 ([1]; iv): 0.64 mg/kg

CN1CCN(C2=Nc3ccccc3Sc3ncccc32)CC1 [Example 2, 5-(1'-methyl-4'-piperazinyl)pyrido[2,3-b][1,5]benzothiazepine]
% protection (histamine [2]; 0.062 mg/kg intraperitoneally): 17%
% protection (histamine [2]; 0.125 mg/kg intraperitoneally): 33%
% protection (histamine [2]; 0.250 mg/kg intraperitoneally): 50%
% protection (histamine [2]; 0.500 mg/kg intraperitoneally): 100%
ED50 (histamine [2]; Cavia porcellus, ip, intraperitoneally, 0.2% histamine aerosol): 0.155 mg/kg
% protection (histamine [3]; 0.062 mg/kg intraperitoneally): 0%
% protection (histamine [3]; 0.125 mg/kg intraperitoneally): 60%
% protection (histamine [3]; 0.250 mg/kg intraperitoneally): 100%
ED50 (histamine [3]; Cavia porcellus, ip, intraperitoneally, 800 γ/kg histamine (LD 100) intravenously): 0.12 mg/kg
Mean Surface area ([1]; I.P., 0.125 mg/kg, control 66.7 ± 2.62): 54.4 ± 3.26 mm^2
% inhibition ([1]; I.P., 0.125 mg/kg, T **): 18%
Mean Surface area ([1]; I.P., 0.5 mg/kg, control 90.8 ± 5.92): 46.3 ± 3.78 mm^2
% inhibition ([1]; I.P., 0.5 mg/kg, T ***): 49%
Mean Surface area ([1]; I.P., 1 mg/kg, control 66.7 ± 2.62): 25.1 ± 3.45 mm^2
% inhibition ([1]; I.P., 1 mg/kg, T ***): 62%
ED50 ([1]; ip, I.P.): 0.57 mg/kg
